Reference: ChEMBL document CHEMBL4837263, “N-Aromatic-Substituted Indazole Derivatives as Brain-Penetrant and Orally Bioavailable JNK3 Inhibitors” (ACS Med Chem Lett, 2021)
The source made the active and inactive calls. No cut-off for these calls is given here.

Key:
[1] = target: Mitogen-activated protein kinase 10 (Homo sapiens, UniProt P53779); assay: Inhibition of human JNK3 at 1 uM using ATF2 as substrate by [gamma-33P]-ATP assay relative to control
[2] = target: T1, Mitogen-activated protein kinase 9 (Homo sapiens, UniProt P45984); assay: Inhibition of JNK2 (unknown origin) using biotinylated FL-ATF-2 as substrate measured after 22 mins by homogeneous time-resolved fluorescence analysis
Target sequence in this assay (P45984 whole entry): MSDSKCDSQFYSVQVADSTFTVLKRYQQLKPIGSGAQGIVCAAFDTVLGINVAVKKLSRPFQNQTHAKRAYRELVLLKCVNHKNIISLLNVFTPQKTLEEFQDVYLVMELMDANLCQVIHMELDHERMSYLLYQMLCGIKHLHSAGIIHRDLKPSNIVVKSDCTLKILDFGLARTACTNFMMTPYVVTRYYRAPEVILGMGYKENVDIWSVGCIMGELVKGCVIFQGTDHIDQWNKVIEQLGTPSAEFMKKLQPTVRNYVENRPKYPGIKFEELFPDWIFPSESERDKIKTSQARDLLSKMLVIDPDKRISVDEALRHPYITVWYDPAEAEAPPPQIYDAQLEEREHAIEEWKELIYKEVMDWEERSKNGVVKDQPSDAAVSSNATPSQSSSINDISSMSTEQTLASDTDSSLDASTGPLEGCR

[3] = target: T1, Mitogen-activated protein kinase 9; assay: Inhibition of human JNK2 at 1 uM using ATF2 as substrate by [gamma-33P]-ATP assay relative to control
Target sequence in this assay (P45984 whole entry, looked up): as the sequence (P45984 whole entry) above

[4] = target: T2, Epithelial discoidin domain-containing receptor 1 (Homo sapiens, UniProt Q08345); assay: Inhibition of human DDR1 using KKSRGDYMTMQIG as substrate by [gamma-33P]-ATP assay
SH-SY5Y = assay: Cytotoxicity against human SH-SY5Y cells assessed as reduction in cell viability at 10 uM measured after 48 hrs by MTT assay; assay type: cell-based
[5] = target: Mitogen-activated protein kinase 8 (Homo sapiens, UniProt P45983); assay: Inhibition of human JNK1 using ATF2 as substrate by [gamma-33P]-ATP assay; conditions: dose 1.0 µM
[6] = target: T3, Casein kinase I isoform epsilon (Homo sapiens, UniProt P49674); assay: Inhibition of human CK1E using KRRRAL[pS]VASLPGL as substrate by [gamma-33P]-ATP assay
Target sequence in this assay (P49674 whole entry, canonical isoform): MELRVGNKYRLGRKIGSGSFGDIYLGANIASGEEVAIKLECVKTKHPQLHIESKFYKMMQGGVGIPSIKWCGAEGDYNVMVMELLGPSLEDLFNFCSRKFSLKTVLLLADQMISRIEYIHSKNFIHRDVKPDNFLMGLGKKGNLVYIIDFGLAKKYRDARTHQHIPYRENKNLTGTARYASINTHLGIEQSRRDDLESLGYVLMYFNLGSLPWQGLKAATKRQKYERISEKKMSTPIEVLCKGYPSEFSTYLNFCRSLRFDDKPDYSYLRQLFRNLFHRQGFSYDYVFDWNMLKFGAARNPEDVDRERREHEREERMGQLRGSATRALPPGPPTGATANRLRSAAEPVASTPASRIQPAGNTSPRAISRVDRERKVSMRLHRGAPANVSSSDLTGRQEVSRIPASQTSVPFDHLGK

[7] = target: Protein-tyrosine kinase 6 (Homo sapiens) (UniProt Q13882); assay: Inhibition of human BRK at 1 uM using poly[Glu:Tyr](4:1) as substrate by [gamma-33P]-ATP assay relative to control
[8] = target: Mitogen-activated protein kinase 10 (Rattus norvegicus) (UniProt P49187); assay: Inhibition of JNK3 in rat primary neuron assessed as reduction in phosphorylation of APP at T668 residue at < 1 nM incubated for 30 mins by Western blot analysis; conditions: dose nM <1, time 30.0 min
[9] = Stability in human liver microsome assessed as half life; assay type: ADME; conditions: liver microsomes
[10] = target: T3, Casein kinase I isoform epsilon; assay: Inhibition of human CK1E at 1 uM using KRRRAL[pS]VASLPGL as substrate by [gamma-33P]-ATP assay relative to control
Target sequence in this assay (P49674 whole entry, looked up, canonical isoform): as the sequence (P49674 whole entry, canonical isoform) above

[11] = target: T2, Epithelial discoidin domain-containing receptor 1; assay: Inhibition of human DDR1 at 1 uM using KKSRGDYMTMQIG as substrate by [gamma-33P]-ATP assay relative to control
[12] = Drug concentration in C57BL/6J mouse plasma at 30 mg/kg, po measured after 2 hrs by LC-MS/MS analysis; assay type: ADME, organism-based
[13] = Stability in mouse liver microsome assessed as half life; assay type: ADME; conditions: liver microsomes
[14] = target: Mitogen-activated protein kinase 14 (Homo sapiens, UniProt Q16539); assay: Inhibition of human p38alpha at 1 uM using MBP as substrate by [gamma-33P]-ATP assay relative to control
[15] = Drug concentration in C57BL/6J mouse brain at 30 mg/kg, po measured after 2 hrs by LC-MS/MS analysis; assay type: ADME, organism-based; conditions: read-out: Ct

T2 sequence (Q08345 whole entry, the tested form may be a part): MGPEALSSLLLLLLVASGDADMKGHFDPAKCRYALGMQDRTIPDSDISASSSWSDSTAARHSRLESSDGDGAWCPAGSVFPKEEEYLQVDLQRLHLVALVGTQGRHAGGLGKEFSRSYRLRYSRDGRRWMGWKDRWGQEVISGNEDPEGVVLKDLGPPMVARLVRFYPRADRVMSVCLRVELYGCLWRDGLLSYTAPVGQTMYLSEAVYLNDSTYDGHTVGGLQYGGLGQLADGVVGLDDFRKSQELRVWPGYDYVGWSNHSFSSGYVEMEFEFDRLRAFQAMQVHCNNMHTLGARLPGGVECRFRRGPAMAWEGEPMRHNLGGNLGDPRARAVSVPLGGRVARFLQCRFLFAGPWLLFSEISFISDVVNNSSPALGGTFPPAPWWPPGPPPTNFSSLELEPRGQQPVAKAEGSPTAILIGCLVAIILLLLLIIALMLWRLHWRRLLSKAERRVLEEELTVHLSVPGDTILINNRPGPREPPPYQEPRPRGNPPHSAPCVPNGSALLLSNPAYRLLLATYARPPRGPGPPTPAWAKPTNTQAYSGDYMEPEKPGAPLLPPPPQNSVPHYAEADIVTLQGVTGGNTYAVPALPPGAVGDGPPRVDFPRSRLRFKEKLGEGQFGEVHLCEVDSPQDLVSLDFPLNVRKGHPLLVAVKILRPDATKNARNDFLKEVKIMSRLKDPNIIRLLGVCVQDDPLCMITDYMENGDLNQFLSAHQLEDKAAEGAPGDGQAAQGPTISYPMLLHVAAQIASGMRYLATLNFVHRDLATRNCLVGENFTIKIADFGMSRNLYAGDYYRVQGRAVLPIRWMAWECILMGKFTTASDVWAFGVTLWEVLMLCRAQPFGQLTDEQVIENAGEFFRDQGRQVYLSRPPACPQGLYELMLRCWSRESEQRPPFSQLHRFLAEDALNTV
Mitogen-activated protein kinase 10, sequence (P53779 whole entry): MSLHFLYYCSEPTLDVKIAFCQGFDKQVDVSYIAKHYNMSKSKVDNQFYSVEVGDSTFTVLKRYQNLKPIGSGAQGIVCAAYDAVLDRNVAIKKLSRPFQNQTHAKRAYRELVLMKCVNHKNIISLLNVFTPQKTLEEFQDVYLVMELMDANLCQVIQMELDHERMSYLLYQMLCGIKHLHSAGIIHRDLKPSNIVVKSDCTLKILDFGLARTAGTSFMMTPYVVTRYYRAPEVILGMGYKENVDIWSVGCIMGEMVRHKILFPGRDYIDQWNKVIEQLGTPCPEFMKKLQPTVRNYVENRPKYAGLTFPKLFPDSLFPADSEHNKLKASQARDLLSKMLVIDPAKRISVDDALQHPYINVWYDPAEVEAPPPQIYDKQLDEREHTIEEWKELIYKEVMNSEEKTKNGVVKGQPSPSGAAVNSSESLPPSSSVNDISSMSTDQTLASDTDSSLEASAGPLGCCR
Protein-tyrosine kinase 6 (Homo sapiens), sequence (Q13882 whole entry, looked up): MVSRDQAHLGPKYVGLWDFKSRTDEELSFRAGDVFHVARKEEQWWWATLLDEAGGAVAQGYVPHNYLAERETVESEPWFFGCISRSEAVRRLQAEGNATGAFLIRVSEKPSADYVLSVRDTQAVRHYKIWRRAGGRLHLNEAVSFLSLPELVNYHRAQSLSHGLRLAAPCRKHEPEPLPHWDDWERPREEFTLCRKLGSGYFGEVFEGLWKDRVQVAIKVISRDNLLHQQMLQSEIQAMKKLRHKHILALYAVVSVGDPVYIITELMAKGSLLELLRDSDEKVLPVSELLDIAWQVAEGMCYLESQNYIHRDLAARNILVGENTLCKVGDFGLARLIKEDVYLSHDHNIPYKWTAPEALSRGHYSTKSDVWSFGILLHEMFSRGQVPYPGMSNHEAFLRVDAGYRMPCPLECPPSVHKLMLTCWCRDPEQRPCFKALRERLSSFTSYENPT
Mitogen-activated protein kinase 14, sequence (Q16539 whole entry): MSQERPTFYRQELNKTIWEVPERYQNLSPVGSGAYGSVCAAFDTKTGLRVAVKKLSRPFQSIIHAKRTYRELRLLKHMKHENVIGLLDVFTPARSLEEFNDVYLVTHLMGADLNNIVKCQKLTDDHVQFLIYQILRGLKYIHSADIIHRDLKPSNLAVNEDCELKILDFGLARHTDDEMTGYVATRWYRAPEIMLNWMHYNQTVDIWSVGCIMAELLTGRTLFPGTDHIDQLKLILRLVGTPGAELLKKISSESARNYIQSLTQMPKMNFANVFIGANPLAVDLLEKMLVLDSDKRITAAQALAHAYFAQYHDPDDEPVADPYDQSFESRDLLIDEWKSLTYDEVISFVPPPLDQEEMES
Mitogen-activated protein kinase 8, sequence (P45983 whole entry, canonical isoform): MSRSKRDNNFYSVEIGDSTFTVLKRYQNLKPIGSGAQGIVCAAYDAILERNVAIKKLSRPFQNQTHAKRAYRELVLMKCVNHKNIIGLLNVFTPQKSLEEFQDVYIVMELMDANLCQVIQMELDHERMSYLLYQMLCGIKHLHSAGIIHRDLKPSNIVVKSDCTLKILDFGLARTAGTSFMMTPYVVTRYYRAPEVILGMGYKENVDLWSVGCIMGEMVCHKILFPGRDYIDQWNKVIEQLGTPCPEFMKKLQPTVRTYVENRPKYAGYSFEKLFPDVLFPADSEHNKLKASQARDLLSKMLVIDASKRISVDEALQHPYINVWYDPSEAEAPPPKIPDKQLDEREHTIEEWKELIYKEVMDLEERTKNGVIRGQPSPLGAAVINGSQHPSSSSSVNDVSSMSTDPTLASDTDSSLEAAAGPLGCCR
Mitogen-activated protein kinase 10 (Rattus norvegicus), sequence (P49187 whole entry): as the sequence (P53779 whole entry) above, with Q27H, Y32S, I33V, A34V counted along it

In the case of `Cc1nc2c(cnn2-c2csc(C(=O)NC3COC3)c2)cc1Nc1c(F)cccc1Cl`, the inhibition [1] is reported as 89%, the IC50 [2] is reported as 74 nM and the inhibition [3] is reported as 81%. The IC50 [4] was 247 nM, the Cell viability (SH-SY5Y) was 116% and the inhibition [5] was 30%. The IC50 [6] was 100 nM, the inhibition [7] was 55% and the inhibition [8] was “Active”. For the same compound, the half-life [9] was 1.53 h, the inhibition [10] was 78% and the inhibition [11] was 73%. It also gave a concentration at 2 h [12] of 5.9 µM, a half-life [13] of 1.28 h and an inhibition [14] of 75%. For the same compound, the concentration at 2 h [15] was 3.3 µM.
